Experimental data taken from patent publication US20250000842A1, “Formulation of Resiniferatoxin” (Sorrento Therapeutics, Inc., priority 2017, published 2025).

Assay: Solubility comparison: recovery of RTX by HPLC after ambient and cold (5° C.) storage in various solutions
Assay type: physicochemical
Details: unmodified aqueous solution
Description: Independently of the formulations described in Example 1, a group of 12 surfactants was tested to compare the recovery of RTX based on HPLC analysis of samples following ambient and cold (5° C.) storage.

## C=C(C)[C@]12C[C@@H](C)[C@@]34O[C@](Cc5ccccc5)(O[C@@H]1[C@@H]3C=C(COC(=O)Cc1ccc(O)c(OC)c1)C[C@]1(O)C(=O)C(C)=C[C@@H]41)O2 [RTX, resiniferatoxin]
  solubility in water (in words): insolubility in water
